In PubChem BioAssay AID248 (DTP/NCI, 2004):
“And” between values parts separate entries of the source, which are not always exact repeats. Identical values can stand only once. Inconclusive results and toxic doses are left out.

System: L1210 leukemia ip in BDF1 mice, survival T/C
Assay: NCI In Vivo Anticancer Drug Screen. Data for tumor model L1210 Leukemia (intraperitoneal) in B6D2F1 (BDF1) mice
Settings: endpoint: mean survival time, higher = longer survival
How it was run: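 Survival endpoint. Drug-treated group vs vehicle group, expressed as T divided by C. Tumor passaged by transplantation.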

With `O=C(Nc1ccc(C2=NCCN2)cc1)c1ccc(C(=O)Nc2ccc(C3=NCCN3)cc2)cc1` the T/C (dose: 60.0 mg/kg/injection, schedule: Q01DX Z (ip), vehicle: acid diluted with saline) was 153 % of control, the T/C (dose: 60.0 mg/kg/injection, schedule: Q01DX Z (ip), vehicle: carboxymethylcellulose (CMC)) was 246 % of control and the T/C (dose: 60.0 mg/kg/injection, schedule: Q03DX Z (ip), vehicle: saline) was 304 % of control. The T/C (dose: 62.5 mg/kg/injection, schedule: Q01DX004 (im), vehicle: olive oil, sesame oil, peanut oil) was 100 % of control, the T/C (dose: 62.5 mg/kg/injection, schedule: Q01DX Z (ip), vehicle: other) was 111 % of control and the T/C (dose: 62.5 mg/kg/injection, schedule: Q01DX Z (sc), vehicle: other) was 158 % of control. The T/C (dose: 70.0 mg/kg/injection, schedule: Q01DX001 (ip), vehicle: saline) was 156 % of control and 161 % of control, the T/C (dose: 70.0 mg/kg/injection, schedule: Q07DX Z (ip), vehicle: saline) was 205 % of control and the T/C (dose: 80.0 mg/kg/injection, schedule: Q01DX Z (ip), vehicle: saline) was 183 % of control. The T/C (dose: 80.0 mg/kg/injection, schedule: Q#A X Z (ip), vehicle: saline) was 210 % of control, the T/C (dose: 120.0 mg/kg/injection, schedule: Q01DX Z (ip), vehicle: acid diluted with saline) was 176 % of control and the T/C (dose: 120.0 mg/kg/injection, schedule: Q01DX Z (ip), vehicle: carboxymethylcellulose (CMC)) was 115 % of control and 204 % of control. The T/C (dose: 120.0 mg/kg/injection, schedule: Q03DX Z (ip), vehicle: saline) was 243 % of control and 252 % of control, the T/C (dose: 125.0 mg/kg/injection, schedule: Q01DX004 (im), vehicle: olive oil, sesame oil, peanut oil) was 100 % of control and the T/C (dose: 125.0 mg/kg/injection, schedule: Q01DX Z (ip), vehicle: other) was 97 % of control. For the same compound, the T/C (dose: 125.0 mg/kg/injection, schedule: Q01DX Z (sc), vehicle: other) was 161 % of control, the T/C (dose: 140.0 mg/kg/injection, schedule: Q01DX001 (ip), vehicle: saline) was 223 % of control and the T/C (dose: 140.0 mg/kg/injection, schedule: Q07DX Z (ip), vehicle: saline) was 282 % of control. The T/C (dose: 160.0 mg/kg/injection, schedule: Q01DX Z (ip), vehicle: saline) was 174 % of control, the T/C (dose: 160.0 mg/kg/injection, schedule: Q#A X Z (ip), vehicle: saline) was 176 % of control and the T/C (dose: 250.0 mg/kg/injection, schedule: Q01DX004 (im), vehicle: olive oil, sesame oil, peanut oil) was 121 % of control. For the same compound, the T/C (dose: 250.0 mg/kg/injection, schedule: Q01DX004 (im), vehicle: saline) was 204 % of control and 208 % of control, the T/C (dose: 250.0 mg/kg/injection, schedule: Q01DX Z (sc), vehicle: other) was 168 % of control and the T/C (dose: 250.0 mg/kg/injection, schedule: Q01DX Z (sc), vehicle: saline) was 217 % of control. For the same compound, the T/C (dose: 280.0 mg/kg/injection, schedule: Q07DX Z (ip), vehicle: saline) was 250 % of control and 327 % of control, the T/C (dose: 320.0 mg/kg/injection, schedule: Q01DX Z (ip), vehicle: saline) was 162 % of control and the T/C (dose: 480.0 mg/kg/injection, schedule: Q03DX Z (ip), vehicle: saline) was 194 % of control. For the same compound, the T/C (dose: 500.0 mg/kg/injection, schedule: Q01DX004 (im), vehicle: saline) was 262 % of control, the T/C (dose: 500.0 mg/kg/injection, schedule: Q01DX Z (sc), vehicle: saline) was 195 % of control and the T/C (dose: 560.0 mg/kg/injection, schedule: Q01DX001 (ip), vehicle: saline) was 184 % of control and 210 % of control. For the same compound, the T/C (dose: 560.0 mg/kg/injection, schedule: Q07DX Z (ip), vehicle: saline) was 261 % of control, the T/C (dose: 640.0 mg/kg/injection, schedule: Q01DX Z (ip), vehicle: saline) was 124 % of control and the T/C (dose: 750.0 mg/kg/injection, schedule: Q01DX Z (sc), vehicle: saline) was 183 % of control and 290 % of control. For the same compound, the T/C (dose: 960.0 mg/kg/injection, schedule: Q03DX Z (ip), vehicle: saline) was 164 % of control, the T/C (dose: 1000.0 mg/kg/injection, schedule: Q01DX004 (im), vehicle: saline) was 267 % of control and the T/C (dose: 1112.0 mg/kg/injection, schedule: Q01DX001 (ip), vehicle: saline) was 157 % of control. For the same compound, the T/C (dose: 1500.0 mg/kg/injection, schedule: Q01DX Z (sc), vehicle: saline) was 215 % of control, the T/C (dose: 18.8 micrograms/kg/injection, schedule: Q01DX Z (ip), vehicle: saline) was 96 % of control and the T/C (dose: 37.5 micrograms/kg/injection, schedule: Q01DX Z (ip), vehicle: saline) was 96 % of control. The T/C (dose: 75.0 micrograms/kg/injection, schedule: Q01DX Z (ip), vehicle: saline) was 100 % of control, the T/C (dose: 150.0 micrograms/kg/injection, schedule: Q01DX Z (ip), vehicle: saline) was 94 % of control and the T/C (dose: 230.0 micrograms/kg/injection, schedule: Q01DX Z (ip), vehicle: carboxymethylcellulose (CMC)) was 98 % of control. The T/C (dose: 460.0 micrograms/kg/injection, schedule: Q01DX Z (ip), vehicle: carboxymethylcellulose (CMC)) was 118 % of control and the T/C (dose: 930.0 micrograms/kg/injection, schedule: Q01DX Z (ip), vehicle: carboxymethylcellulose (CMC)) was 113 % of control.
